Results published in patent publication US10681909B2, “Herbicidal triazoles” (FMC Corporation, priority 2014, dated 2020).

Assays:
[1] = test system: oat, wild; test: Test C postemergence; type: in vivo, Avena fatua
Description: (§1) Seeds of plant species selected from blackgrass (Alopecurus myosuroides), ryegrass, Italian (Italian ryegrass, Lolium multiflorum), wheat (winter wheat, Triticum aestivum), galium (catchweed bedstraw, Galium aparine), corn (Zea mays), crabgrass, large (large crabgrass, Digitaria sanguinalis), foxtail, giant, (giant foxtail, Setaria faberii), johnsongrass (Sorghum halepense), lambsquarters (Chenopodium album), morningglory (Ipomoea coccinea), nutsedge, yellow (yellow nutsedge, Cyperus esculentus), pigweed (Amaranthus retroflexus), ragweed (common ragweed, Ambrosia elatior), soybean (Glycine max), barnyardgrass (Echinochloa crus-galli), oilseed rape (Brassica napus), waterhemp (common waterhemp, Amaranthus rudis), and velvetleaf (Abutilon theophrasti) were planted into a blend of loam soil and sand and treated preemergence with test chemicals formulated in a non-phytotoxic solvent mixture which included a surfactant. At the same time, plants selected from these crop and weed species and also chickweed (common chickweed, Stellaria media), oat, wild (wild oat, Avena fatua), and kochia (Kochia scoparia), were planted in pots containing Sunshine Redi-Earth® planting medium comprising spaghnum peat moss, vermiculite, starter nutrients and dolomitic limestone and treated with postemergence applications of test chemicals formulated in the same manner. Plants ranged in height from 2 to 18 cm (1- to 4-leaf stage) for postemergence treatments. […] A dash (-) response means no test result.

[2] = test system: waterhemp; test: Test C postemergence; type: in vivo, Amaranthus rudis
Description: as §1

[3] = test system: wheat; test: Test A postemergence; type: in vivo, Triticum aestivum; details: Triticum aestivum, post-emergence, 240 h, 0 to 100 scale (0 no effect, 100 complete control), approx. 10 d, read-out: Plant response rating, Wheat; for plant injury at 125 g/ha: 125 g ai/ha
Outline: (§2)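 Herbicidal response was scored on plants treated pre- or postemergence with surfactant-containing, non-phytotoxic solvent formulations. Preemergence meant a directed spray onto soil (loam–sand) holding sown seed; postemergence plants were at one to two leaves.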

[4] = test system: pigweed; test: Test A postemergence; type: in vivo, Amaranthus retroflexus; details: Amaranthus retroflexus, post-emergence, 240 h, 0 to 100 scale (0 no effect, 100 complete control), approx. 10 d, read-out: Plant response rating, Pigweed; for pest or weed control at 125 g/ha: 125 g ai/ha
Outline: as §2

[5] = test system: corn; test: Test C postemergence; type: in vivo, Zea mays
Description: as §1

[6] = test system: blackgrass; test: Test C postemergence; type: in vivo, Alopecurus myosuroides
Description: as §1

[7] = test system: chickweed; test: Test C postemergence; type: in vivo, Stellaria media
Description: as §1

[8] = test system: barnyardgrass; test: Test C postemergence; type: in vivo, Echinochloa crus-galli
Description: as §1

[9] = test system: foxtail, giant; test: Test A postemergence; type: in vivo, Setaria faberii; details: Setaria faberi, post-emergence, 240 h, 0 to 100 scale (0 no effect, 100 complete control), approx. 10 d, read-out: Plant response rating, Foxtail, Giant; for pest or weed control at 125 g/ha: 125 g ai/ha
Outline: as §2

[10] = test system: nutsedge, yellow; test: Test C postemergence; type: in vivo, Cyperus esculentus
Description: as §1

[11] = test system: pigweed; test: Test A preemergence; type: in vivo, Amaranthus retroflexus; details: Amaranthus retroflexus, pre-emergence, 240 h, 0 to 100 scale (0 no effect, 100 complete control), read-out: Plant response rating, Pigweed; for pest or weed control at 125 g/ha: 125 g ai/ha
Outline: as §2

[12] = test system: lambsquarters; test: Test C postemergence; type: in vivo, Chenopodium album
Description: as §1

[13] = test system: soybean; test: Test C postemergence; type: in vivo, Glycine max
Description: as §1

[14] = test system: wheat (winter wheat); test: Test C postemergence; type: in vivo, Triticum aestivum
Description: as §1

[15] = test system: foxtail, giant; test: Test C postemergence; type: in vivo, Setaria faberii
Description: as §1

[16] = test system: galium; test: Test C postemergence; type: in vivo, Galium aparine
Description: as §1

[17] = test system: ryegrass, Italian; test: Test C postemergence; type: in vivo, Lolium multiflorum
Description: as §1

[18] = test system: oilseed rape; test: Test C postemergence; type: in vivo, Brassica napus
Description: as §1

[19] = test system: sedge, umbrella; test: Test B flooded paddy test; type: in vivo, Cyperus difformis; details: Cyperus difformis, 360 h, 125 g ai/ha, applied to paddy water at 2-leaf stage, visual rating after 13 to 15 d, scale 0 (no effect) to 100 (complete control), read-out: Plant response rating, Sedge, Umbrella, Flood
Outline: (§3)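 Pots were flooded to 3 cm above the soil at treatment, and compounds were applied directly into the paddy water. That depth was held throughout. After 13 to 15 d in a greenhouse, plants were rated visually against untreated controls.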

[20] = test system: barnyardgrass; test: Test B flooded paddy test; type: in vivo, Echinochloa crus-galli; details: Echinochloa crus-galli, 360 h, 125 g ai/ha, applied to paddy water at 2-leaf stage, visual rating after 13 to 15 d, scale 0 (no effect) to 100 (complete control), read-out: Plant response rating, Barnyardgrass, Flood
Outline: as §3

Structure (SMILES): CCOc1nc(-c2ccc(C(F)(F)F)cc2)nn1Cc1ccnc(C(F)(F)F)c1 [Compound 35, 4-[[5-ethoxy-3-[4-(trifluoromethyl)phenyl]-1H-1,2,4-triazole-1-yl]methyl]-2-(trifluoromethyl)pyridine]
- Plant response rating (scale of 0 to 100 where 0 is no effect and 100 is complete control) ([1]; 31 g ai/ha): 45
- Plant response rating (scale of 0 to 100 where 0 is no effect and 100 is complete control) ([1]; 62 g ai/ha): 50
- Plant response rating (scale of 0 to 100 where 0 is no effect and 100 is complete control) ([1]; 125 g ai/ha): 85
- Plant response rating (scale of 0 to 100 where 0 is no effect and 100 is complete control) ([1]; 250 g ai/ha): 90
- Plant response rating (scale of 0 to 100 where 0 is no effect and 100 is complete control) ([2]; 31 g ai/ha): 98
- Plant response rating (scale of 0 to 100 where 0 is no effect and 100 is complete control) ([2]; 62 g ai/ha): 98
- Plant response rating (scale of 0 to 100 where 0 is no effect and 100 is complete control) ([2]; 125 g ai/ha): 95
- Plant response rating (scale of 0 to 100 where 0 is no effect and 100 is complete control) ([2]; 250 g ai/ha): 98
- plant injury at 31 g/ha ([3]; 31 g ai/ha): 40%
- plant injury at 125 g/ha [3]: 70%
- pest or weed control at 31 g/ha ([4]; 31 g ai/ha): 100%
- pest or weed control at 125 g/ha [4]: 100%
- Plant response rating (scale of 0 to 100 where 0 is no effect and 100 is complete control) ([5]; 31 g ai/ha): 25
- Plant response rating (scale of 0 to 100 where 0 is no effect and 100 is complete control) ([5]; 62 g ai/ha): 20
- Plant response rating (scale of 0 to 100 where 0 is no effect and 100 is complete control) ([5]; 125 g ai/ha): 25
- Plant response rating (scale of 0 to 100 where 0 is no effect and 100 is complete control) ([5]; 250 g ai/ha): 50
- Plant response rating (scale of 0 to 100 where 0 is no effect and 100 is complete control) ([6]; 31 g ai/ha): 65
- Plant response rating (scale of 0 to 100 where 0 is no effect and 100 is complete control) ([6]; 62 g ai/ha): 70
- Plant response rating (scale of 0 to 100 where 0 is no effect and 100 is complete control) ([6]; 125 g ai/ha): 85
- Plant response rating (scale of 0 to 100 where 0 is no effect and 100 is complete control) ([6]; 250 g ai/ha): 85
- Plant response rating (scale of 0 to 100 where 0 is no effect and 100 is complete control) ([7]; 31 g ai/ha): 100
- Plant response rating (scale of 0 to 100 where 0 is no effect and 100 is complete control) ([7]; 62 g ai/ha): 100
- Plant response rating (scale of 0 to 100 where 0 is no effect and 100 is complete control) ([7]; 125 g ai/ha): 100
- Plant response rating (scale of 0 to 100 where 0 is no effect and 100 is complete control) ([7]; 250 g ai/ha): 100
- Plant response rating (scale of 0 to 100 where 0 is no effect and 100 is complete control) ([8]; 31 g ai/ha): 30
- Plant response rating (scale of 0 to 100 where 0 is no effect and 100 is complete control) ([8]; 62 g ai/ha): 45
- Plant response rating (scale of 0 to 100 where 0 is no effect and 100 is complete control) ([8]; 125 g ai/ha): 60
- Plant response rating (scale of 0 to 100 where 0 is no effect and 100 is complete control) ([8]; 250 g ai/ha): 85
- pest or weed control at 31 g/ha ([9]; 31 g ai/ha): 80%
- pest or weed control at 125 g/ha [9]: 90%
- Plant response rating (scale of 0 to 100 where 0 is no effect and 100 is complete control) ([10]; 31 g ai/ha): 20
- Plant response rating (scale of 0 to 100 where 0 is no effect and 100 is complete control) ([10]; 62 g ai/ha): 10
- Plant response rating (scale of 0 to 100 where 0 is no effect and 100 is complete control) ([10]; 125 g ai/ha): 30
- Plant response rating (scale of 0 to 100 where 0 is no effect and 100 is complete control) ([10]; 250 g ai/ha): 35
- pest or weed control at 31 g/ha ([11]; 31 g ai/ha): 100%
- pest or weed control at 125 g/ha [11]: 100%
- Plant response rating (scale of 0 to 100 where 0 is no effect and 100 is complete control) ([12]; 31 g ai/ha): 98
- Plant response rating (scale of 0 to 100 where 0 is no effect and 100 is complete control) ([12]; 62 g ai/ha): 95
- Plant response rating (scale of 0 to 100 where 0 is no effect and 100 is complete control) ([12]; 125 g ai/ha): 98
- Plant response rating (scale of 0 to 100 where 0 is no effect and 100 is complete control) ([12]; 250 g ai/ha): 100
- Plant response rating (scale of 0 to 100 where 0 is no effect and 100 is complete control) ([13]; 31 g ai/ha): 55
- Plant response rating (scale of 0 to 100 where 0 is no effect and 100 is complete control) ([13]; 62 g ai/ha): 65
- Plant response rating (scale of 0 to 100 where 0 is no effect and 100 is complete control) ([13]; 125 g ai/ha): 65
- Plant response rating (scale of 0 to 100 where 0 is no effect and 100 is complete control) ([13]; 250 g ai/ha): 70
- Plant response rating (scale of 0 to 100 where 0 is no effect and 100 is complete control) ([14]; 31 g ai/ha): 15
- Plant response rating (scale of 0 to 100 where 0 is no effect and 100 is complete control) ([14]; 62 g ai/ha): 20
- Plant response rating (scale of 0 to 100 where 0 is no effect and 100 is complete control) ([14]; 125 g ai/ha): 35
- Plant response rating (scale of 0 to 100 where 0 is no effect and 100 is complete control) ([14]; 250 g ai/ha): 30
- Plant response rating (scale of 0 to 100 where 0 is no effect and 100 is complete control) ([15]; 31 g ai/ha): 25
- Plant response rating (scale of 0 to 100 where 0 is no effect and 100 is complete control) ([15]; 62 g ai/ha): 40
- Plant response rating (scale of 0 to 100 where 0 is no effect and 100 is complete control) ([15]; 125 g ai/ha): 70
- Plant response rating (scale of 0 to 100 where 0 is no effect and 100 is complete control) ([15]; 250 g ai/ha): 85
- Plant response rating (scale of 0 to 100 where 0 is no effect and 100 is complete control) ([16]; 31 g ai/ha): 80
- Plant response rating (scale of 0 to 100 where 0 is no effect and 100 is complete control) ([16]; 62 g ai/ha): 80
- Plant response rating (scale of 0 to 100 where 0 is no effect and 100 is complete control) ([16]; 125 g ai/ha): 90
- Plant response rating (scale of 0 to 100 where 0 is no effect and 100 is complete control) ([16]; 250 g ai/ha): 90
- Plant response rating (scale of 0 to 100 where 0 is no effect and 100 is complete control) ([17]; 31 g ai/ha): 30
- Plant response rating (scale of 0 to 100 where 0 is no effect and 100 is complete control) ([17]; 62 g ai/ha): 55
- Plant response rating (scale of 0 to 100 where 0 is no effect and 100 is complete control) ([17]; 125 g ai/ha): 60
- Plant response rating (scale of 0 to 100 where 0 is no effect and 100 is complete control) ([17]; 250 g ai/ha): 80
- Plant response rating (scale of 0 to 100 where 0 is no effect and 100 is complete control) ([18]; Oilsee Rape, 250 g ai/ha): 98
- Plant response rating (scale of 0 to 100 where 0 is no effect and 100 is complete control) ([18]; Oilseed Rape, 31 g ai/ha): 80
- Plant response rating (scale of 0 to 100 where 0 is no effect and 100 is complete control) ([18]; Oilseed Rape, 62 g ai/ha): 90
- Plant response rating (scale of 0 to 100 where 0 is no effect and 100 is complete control) ([18]; Oilseed Rape, 125 g ai/ha): 80

Structure (SMILES): CS(=O)(=O)c1nc(-c2ccc(F)cc2)nn1Cc1ccnc(C(F)(F)F)c1 [Compound 29, 4-[[3-(4-fluorophenyl)-5-(methylsulfonyl)-1H-1,2,4-triazole-1-yl]methyl]-2-(trifluoromethyl)pyridine]
- plant injury at 125 g/ha [3]: 0%
- plant injury at 500 g/ha ([3]; 500 g ai/ha): 0%
- pest or weed control at 125 g/ha [4]: 0%
- pest or weed control at 500 g/ha ([4]; 500 g ai/ha): 0%
- pest or weed control at 125 g/ha [19]: 0%
- pest or weed control at 125 g/ha [9]: 0%
- pest or weed control at 500 g/ha ([9]; 500 g ai/ha): 0%
- pest or weed control at 125 g/ha [11]: 0%
- pest or weed control at 500 g/ha ([11]; 500 g ai/ha, approx. 10 d): 0%
- pest or weed control at 125 g/ha [20]: 0%
